Tested on: warm-blooded animal
Test: Example II: tested as BW1433 was tested in Example I (obesity; ratio of muscle mass to fat)
Assay type: in vivo, rats
Experimental: My initial studies were carried out following acute subcutaneous injections of the drug into male Sprague Dawley rats and into lean and into obese Zucker rats. Blood samples (100 microliter) were taken from the tail of the rats and measurements made of serum glycerol^6. Glycerol is an end product of lipolysis and thus an excellent indicator of the rate of whole body lipolysis. […] I discovered that in the absence of the Formula I compound tested, serum glycerol levels only differ slightly when comparing lean and obese animals. Since there is 3-4 times more fat in the obese animal this is good evidence for sluggish lipolysis per g of fat in the obese. The obese animals however seem to mobilize the fat at an earlier time after removal of their food supply (Table 1), since after 6 hours of fasting the obese serum glycerol levels are much higher than the lean.
Next, I studied the effect of chronic treatment with BW1433. For this purpose I employed 2 ml Alzet mini osmotic pumps. Each pump was loaded with 2 ml of a solution containing BW1433 or with vehicle (aqueous solution adjusted to pH II). The amount of BW1433 was adjusted so that the pump delivered either zero, 0.2 mg or 0.4 mg/Kg/hour to each animal. On the first day the animals had the pumps implanted and were given a priming (2 mg/Kg or 4 mg/Kg) dose of the antagonist. Blood was taken prior to surgery and six hours after the animals were removed from their food supply. On each subsequent day animals had free access to food and water overnight, then their food removed for six hours, and a blood sample taken.
In addition to taking blood samples for glycerol analysis, each animal was weighed every day for seven days. After seven days the animals were fasted overnight and a glucose tolerance test given The animals were then sacrificed and 1 ml blood sample taken for serum insulin and serum BW1433 determination drug levels. Insulin levels were measured with RIA kit (Diagnostic Products) and BW1433 levels were measured fluorometrically after HPLC separation at Burroughs Wellcome, Research Triangle Park, North Carolina. […] Nonetheless, when glucose tolerance curves were administered on day 7, drug-related differences could still be seen in all animals studied. […] This is illustrated more clearly in FIG. 4 where the area under the glucose tolerance curve is shown as a bar for each of the 6 groups of animals. […] FIG. 5 is a chart of the change in weight of treated and untreated lean and obese animals. […] The effect on weight change in each case was maximal at day 3, the day when the glycerol values peaked. Based on these remarkable results, the compounds of Formula I can be administered to obese warm-blooded animals as anti-obesity agents, or administered to farm animals to advantageously increase the ratio of muscle mass to fat therein.

Compound	activity in method of treating obesity in a warm-blooded animal and in increasing the ratio of muscle mass to fat in farm animals
CC(C)Cn1c(=O)[nH]c(=O)c2nc(-c3ccc(/C=C/C(=O)O)cc3)[nH]c21 [compound 9, (E)-4-(1,2,3,6-tetrahydro-3-isobutyl-2,6-dioxo-9H-purin-8-yl)cinnamic acid]	active and effective
Cn1c(=O)c2[nH]c(-c3ccc(/C=C/C(=O)O)cc3)nc2n(C)c1=S [compound 19, (E)-4-(1,2,3,6-tetrahydro-1,3-dimethyl-6-oxo-2-thio-9H-purin-8-yl)cinnamicacid]	active and effective
CC(C)Cn1c(=O)n(C)c(=O)c2nc(-c3ccc(/C=C/C(=O)O)cc3)[nH]c21 [compound 11, (E)-4-(1,2,3,6-tetrahydro-3-isobutyl-1-methyl-2,6-dioxo-9H-purin-8-yl)cinnamic acid]	active and effective
CCCn1c(=O)c2nc(-c3ccc(/C=C/C(=O)O)cc3)[nH]c2n(Cc2ccccc2)c1=O [compound 25, (E)-4-(3-benzyl-1,2,3,6-tetrahydro-2,6-dioxo-1-propyl-9H-purin-8-yl)cinnamic acid]	active and effective
CCn1c(=O)c2nc(-c3ccc(/C=C/C(=O)O)cc3)[nH]c2n(CC)c1=O [compound 4, (E)-4-(1,3-diethyl-1,2,3,6-tetrahydro-2,6-dioxo-9H-purin-8-yl)cinnamic acid]	active and effective
O=C(O)/C=C/c1ccc(-c2nc3c(=O)n(Cc4ccccc4)c(=O)n(Cc4ccccc4)c3[nH]2)cc1 [compound 14, (E)-4-(1,3-dibenzyl-1,2,3,6-tetrahydro-2,6-dioxo-9H-purin-8-yl)cinnamicacid]	active and effective
CCCCn1c(=O)c2nc(-c3ccc(/C=C/C(=O)O)cc3)[nH]c2n(CCCC)c1=O [compound 13, (E)-4-(1,3-dibutyl-1,2,3,6-tetrahydro-2,6-dioxo-9H-purin-8-yl)cinnamic acid]	active and effective
Cn1c(=O)c2nc(-c3ccc(/C=C/C(=O)O)cc3)[nH]c2n(Cc2cccc(C#N)c2)c1=O [compound 21, (E)-4-[3-(3-cyanobenzyl)-1,2,3,6-tetrahydro-1-methyl-2,6-dioxo-9H-purin-8-yl]cinnamic acid]	active and effective
Cn1c(=O)[nH]c(=O)c2nc(-c3ccc(/C=C/C(=O)O)cc3)[nH]c21 [compound 6, (E)-4-(1,2,3,6-tetrahydro-3-methyl-2,6-dioxo-9H-purin-8-yl)cinnamic acid]	active and effective
CCCCn1c(=O)n(C)c(=O)c2nc(-c3ccc(/C=C/C(=O)O)cc3)[nH]c21 [compound 15, (E)-4-(3-butyl-1,2,3,6-tetrahydro-1-methyl-2,6-dioxo-9H-purin-8-yl)cinnamicacid]	active and effective
CCCn1c(=O)[nH]c(=O)c2nc(-c3ccc(/C=C/C(=O)O)cc3)[nH]c21 [compound 8, (E)-4-(1,2,3,6-tetrahydro-2,6-dioxo-3-propyl-9H-purin-8-yl)cinnamic acid]	active and effective
CC(C)Cn1c(=O)c2nc(-c3ccc(/C=C/C(=O)O)cc3)[nH]c2n(CC(C)C)c1=O [compound 18, (E)-4-(1,2,3,6-tetrahydro-1,3-diisobutyl-2,6-dioxo-9H-purin-8-yl)cinnamic acid]	active and effective
Cn1c(=O)c2nc(-c3ccc(/C=C/C(=O)O)cc3)[nH]c2n(Cc2ccc(C#N)cc2)c1=O [compound 20, (E)-4-[3-(4-cyanobenzyl)-1,2,3,6-tetrahydro-1-methyl-2,6-dioxo-9H-purin-8-yl]cinnamic acid]	active and effective
Cn1c(=O)c2nc(-c3ccc(/C=C/C(=O)O)cc3)[nH]c2n(C)c1=O [compound 2, (E)-4-(1,2,3,6-tetrahydro-1,3-dimethyl-2,6-dioxo-9H-purin-8-yl)cinnamic acid]	active and effective
CCn1c(=O)[nH]c(=O)c2nc(-c3ccc(/C=C/C(=O)O)cc3)[nH]c21 [compound 7, (E)-4-(3-ethyl-1,2,3,6-tetrahydro-2,6-dioxo-9H-purin-8-yl)cinnamic acid]	active and effective
CCCCn1c(=O)c2nc(-c3ccc(/C=C/C(=O)O)cc3)[nH]c2n(C)c1=O [compound 16, (E)-4-(1-butyl-1,2,3,6-tetrahydro-3-methyl-2,6-dioxo-9H-purin-8-yl)cinnamic acid]	active and effective
CCCn1c(=O)n(C)c(=O)c2nc(-c3ccc(/C=C/C(=O)O)cc3)[nH]c21 [compound 10, (E)-4-(1,2,3,6-tetrahydro-1-methyl-2,6-dioxo-3-propyl-9H-purin-8-yl)cinnamic acid]	active and effective
CCCn1c(=O)n(Cc2ccccc2)c(=O)c2nc(-c3ccc(/C=C/C(=O)O)cc3)[nH]c21 [compound 24, (E)-4-(1-benzyl-1,2,3,6-tetrahydro-2,6-dioxo-3-propyl-9H-purin-8-yl)cinnamic acid]	active and effective
Cn1c(=O)n(Cc2ccc(C#N)cc2)c(=O)c2nc(-c3ccc(/C=C/C(=O)O)cc3)[nH]c21 [compound 23, (E)-4-[1-(4-cyanobenzyl)-1,2,3,6-tetrahydro-3-methyl-2,6-dioxo-9H-purin-8-yl]cinnamic acid]	active and effective
CCCn1c(=O)c2nc(-c3ccc(/C=C/C(=O)O)cc3)[nH]c2n(C)c1=O [compound 3, (E)-4-(1,2,3,6-tetrahydro-3-methyl-2,6-dioxo-1-propyl-9H-purin-8-yl)cinnamic acid]	active and effective
Cn1c(=O)c2nc(-c3ccc(/C=C/C(=O)O)cc3)[nH]c2n(Cc2ccccc2)c1=O [compound 17, (E)-4-(3-benzyl-1,2,3,6-tetrahydro-1-methyl-2,6-dioxo-9H-purin-8-yl)cinnamic acid]	active and effective
C=CCn1c(=O)c2nc(-c3ccc(/C=C/C(=O)O)cc3)[nH]c2n(CC=C)c1=O [compound 5, (E)-4-(1,3-diallyl-1,2,3,6-tetrahydro-2,6-dioxo-9H-purin-8-yl)cinnamic acid]	active and effective
CCCn1c(=O)c2nc(-c3ccc(C#CC(=O)O)cc3)[nH]c2n(CCC)c1=O [compound 22, 3-[4-(1,2,3,6-tetrahydro-2,6-dioxo-1,3-dipropyl-9H-purin-8-yl)phenyl]propiolic acid]	active and effective
CCn1c(=O)c2nc(-c3ccc(/C=C/C(=O)O)cc3)[nH]c2n(C)c1=O [compound 12, (E)-4-(1-ethyl-1,2,3,6-tetrahydro-3-methyl-2,6-dioxo-9H-purin-8-yl)cinnamic acid]	active and effective

From US5300298A, “Methods of treating obesity with purine related compounds” (The Pennsylvania Research Corporation, priority 1992, dated 1994)
